Experimental data taken from patent US9969742B2, “Imidazotriazinone compounds” (Ironwood Pharmaceuticals, Inc., priority 2012, dated 2018).
pIC50: −log10 of the molar value. Read-outs that look alike come from different tables or passages of the source.

Experiments:
Type in all cases: biochemical
[1] = target: T1, PDE1A (Homo sapiens, UniProt P54750); experiment: Phosphodiesterase enzyme screening assay, PDE1A
T1 construct: purchased Reaction Biology Corporation, Malvern, Pa
Outline: (§1)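 Compounds were tested on commercial human PDE enzymes using a fluorescent cGMP substrate at 4.0 μM, incubated for one hour at room temperature. Values are means of four wells versus controls.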

[2] = target: T2, PDE9A2 (Homo sapiens, UniProt O76083); experiment: Phosphodiesterase enzyme screening assay, PDE9A2; conditions: read-out: Band (PDE9A2 IC50)
T2 construct: purchased Reaction Biology Corporation, Malvern, Pa
T2 sequence (O76083 1-533 isoform O76083-2): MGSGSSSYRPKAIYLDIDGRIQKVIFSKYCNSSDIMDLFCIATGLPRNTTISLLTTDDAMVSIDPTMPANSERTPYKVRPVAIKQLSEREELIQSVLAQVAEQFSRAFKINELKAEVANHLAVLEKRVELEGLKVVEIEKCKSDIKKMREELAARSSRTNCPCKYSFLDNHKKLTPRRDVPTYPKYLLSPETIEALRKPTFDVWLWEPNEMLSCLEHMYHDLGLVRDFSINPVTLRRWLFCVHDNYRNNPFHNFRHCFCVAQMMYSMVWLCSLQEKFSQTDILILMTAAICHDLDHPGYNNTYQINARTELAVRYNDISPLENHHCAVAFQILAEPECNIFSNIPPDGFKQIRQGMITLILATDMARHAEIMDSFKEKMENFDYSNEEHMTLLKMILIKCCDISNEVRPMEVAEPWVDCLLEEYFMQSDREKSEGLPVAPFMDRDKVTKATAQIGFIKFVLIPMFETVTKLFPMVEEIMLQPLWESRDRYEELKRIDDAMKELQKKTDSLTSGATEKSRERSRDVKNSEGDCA
Outline: as §1

[3] = target: T3, PDE1B (Homo sapiens, UniProt Q01064); experiment: Phosphodiesterase enzyme screening assay, PDE1B
T3 construct: purchased Reaction Biology Corporation, Malvern, Pa
T3 sequence (Q01064 whole entry): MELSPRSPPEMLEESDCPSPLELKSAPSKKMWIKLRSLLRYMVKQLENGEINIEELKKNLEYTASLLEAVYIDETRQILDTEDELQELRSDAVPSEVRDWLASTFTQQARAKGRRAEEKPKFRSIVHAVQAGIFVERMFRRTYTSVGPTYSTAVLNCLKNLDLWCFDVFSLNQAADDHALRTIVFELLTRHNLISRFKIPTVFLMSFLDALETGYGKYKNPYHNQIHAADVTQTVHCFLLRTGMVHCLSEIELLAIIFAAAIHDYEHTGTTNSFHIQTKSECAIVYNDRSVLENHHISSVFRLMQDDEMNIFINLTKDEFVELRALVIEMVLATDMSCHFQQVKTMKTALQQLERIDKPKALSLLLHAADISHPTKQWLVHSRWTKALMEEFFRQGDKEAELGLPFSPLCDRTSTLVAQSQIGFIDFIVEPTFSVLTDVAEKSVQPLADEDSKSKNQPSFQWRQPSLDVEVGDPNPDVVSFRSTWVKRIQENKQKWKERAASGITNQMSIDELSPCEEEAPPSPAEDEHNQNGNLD
Outline: as §1

[4] = Table 1, ratio of IC50 values, value greater than 1 indicates greater selectivity for PDE9A2
[5] = Table 1, 10 concentrations, 4.0 μM cGMP substrate, 1 hour at R.T.
[6] = ratio of IC50 values PDE1A / PDE9A2, value greater than 1 = greater selectivity for PDE9A2
[7] = 4.0 μM cGMP substrate, 1 hour at R.T.
[8] = ratio of IC50 values PDE1B / PDE9A2, value greater than 1 = greater selectivity for PDE9A2
[9] = ratio of IC50 values, value greater than 1 indicates greater selectivity for PDE9A2
[10] = ratio of IC50 values, PDE1A versus PDE9A2, value greater than 1 = greater selectivity for PDE9A2
[11] = Table 3, 4.0 μM cGMP substrate, 1 hour at R.T.
[12] = ratio of IC50 values, PDE1B versus PDE9A2, value greater than 1 = greater selectivity for PDE9A2

T1 sequence (P54750 whole entry): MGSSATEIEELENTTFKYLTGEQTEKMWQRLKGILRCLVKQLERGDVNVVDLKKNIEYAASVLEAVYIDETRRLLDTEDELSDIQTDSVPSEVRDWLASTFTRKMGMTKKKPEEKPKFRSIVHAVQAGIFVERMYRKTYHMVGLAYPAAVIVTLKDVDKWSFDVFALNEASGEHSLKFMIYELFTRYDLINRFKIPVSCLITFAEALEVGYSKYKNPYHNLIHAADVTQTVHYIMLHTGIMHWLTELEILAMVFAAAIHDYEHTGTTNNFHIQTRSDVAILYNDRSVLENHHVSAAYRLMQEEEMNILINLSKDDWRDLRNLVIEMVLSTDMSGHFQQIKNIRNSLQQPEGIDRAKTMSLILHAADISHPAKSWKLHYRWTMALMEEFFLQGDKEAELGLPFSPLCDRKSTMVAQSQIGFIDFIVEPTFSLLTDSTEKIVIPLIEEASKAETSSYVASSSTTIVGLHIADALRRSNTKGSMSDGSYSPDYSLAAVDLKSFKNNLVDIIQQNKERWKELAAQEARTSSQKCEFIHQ

| PDE1A selectivity (versus PDE9A2) [1, 4] | pIC50 [2, 5] | PDE1B selectivity (versus PDE9A2) [3, 4] | SMILES | further results |
| --- | --- | --- | --- | --- |
| 249 | > 6.00 | 105 | Cc1ccccc1CN1CC(C)C(c2nn3c(C4CCOCC4)ncc3c(=O)[nH]2)C1 (single isomer, unassigned; (+)) [(+)-2-((3,4-trans)-4-methyl-1-(2-methylbenzyl)pyrrolidin-3-yl)-7-(tetrahydro-2H-pyran-4-yl)imidazo[5,1-f][1,2,4]triazin-4(3H)-one] | – |
| 203 | > 6.00 | 86 | CC1CN(Cc2cccc(C(F)(F)F)c2)CC1c1nn2c(C3CCOCC3)ncc2c(=O)[nH]1 (single isomer, unassigned; (+)) [(+)-2-((3,4-trans)-4-methyl-1-(3-(trifluoromethyl)benzyl)pyrrolidin-3-yl)-7-(tetrahydro-2H-pyran-4-yl)imidazo[5,1-f][1,2,4]triazin-4(3H)-one] | – |
| 181 | > 6.00 | 356 | CC1CN(Cc2nc3ccccc3n2C)CC1c1nn2c(C3CCOCC3)ncc2c(=O)[nH]1 (single isomer, unassigned; (+)) [(+)-2-((3,4-trans)-4-methyl-1-((1-methyl-1H-benzo[d]imidazol-2-yl)methyl)pyrrolidin-3-yl)-7-(tetrahydro-2H-pyran-4-yl)imidazo[5,1-f][1,2,4]triazin-4(3H)-one] | – |
| 184 | > 6.00 | 400 | Cc1nccc(CN2CC(C)C(c3nn4c(C5CCOCC5)ncc4c(=O)[nH]3)C2)n1 (single isomer, unassigned; (+)) [(+)-2-((3,4-trans)-4-methyl-1-((2-methylpyrimidin-4-yl)methyl)pyrrolidin-3-yl)-7-(tetrahydro-2H-pyran-4-yl)imidazo[5,1-f][1,2,4]triazin-4(3H)-one] | – |
| 129 | > 6.00 | 243 | Cc1ncc(CN2CC(C)C(c3nn4c(C5CCOCC5)ncc4c(=O)[nH]3)C2)s1 (single isomer, unassigned; (+)) [(+)-2-((3,4-trans)-4-methyl-1-((2-methylthiazol-5-yl)methyl)pyrrolidin-3-yl)-7-(tetrahydro-2H-pyran-4-yl)imidazo[5,1-f][1,2,4]triazin-4(3H)-one] | – |

Second part, the compound before the results:

| SMILES | PDE1A selectivity (versus PDE9A2) [1, 4] | pIC50 [2, 5] | PDE1B selectivity (versus PDE9A2) [3, 4] | further results |
| --- | --- | --- | --- | --- |
| CC1CN(Cc2ccccc2C(F)(F)F)CC1c1nn2c(C3CCOCC3)ncc2c(=O)[nH]1 (single isomer, unassigned; (+)) [(+)-2-((3,4-trans)-4-methyl-1-(2-(trifluoromethyl)benzyl)pyrrolidin-3-yl)-7-(tetrahydro-2H-pyran-4-yl)imidazo[5,1-f][1,2,4]triazin-4(3H)-one] | 73 | > 6.00 | 16 | – |
| CC1CN(Cc2cccc(N3CCCC3)c2)CC1c1nn2c(C3CCOCC3)ncc2c(=O)[nH]1 (single isomer, unassigned; (+)) [(+)-2-((3,4-trans)-4-methyl-1-(3-(pyrrolidin-1-yl)benzyl)pyrrolidin-3-yl)-7-(tetrahydro-2H-pyran-4-yl)imidazo[5,1-f][1,2,4]triazin-4(3H)-one] | 700 | > 6.00 | 1190 | – |
| CC1CN(Cc2cccc(OC(F)(F)F)c2)CC1c1nn2c(C3CCOCC3)ncc2c(=O)[nH]1 (single isomer, unassigned; (+)) [(+)-2-((3,4-trans)-4-methyl-1-(3-(trifluoromethoxy)benzyl)pyrrolidin-3-yl)-7-(tetrahydro-2H-pyran-4-yl)imidazo[5,1-f][1,2,4]triazin-4(3H)-one] | 261 | > 6.00 | 99 | – |
| Cc1cccc(CN2CC(C)C(c3nn4c(C5CCOCC5)ncc4c(=O)[nH]3)C2)c1 (single isomer, unassigned; (+)) [(+)-2-((3,4-trans)-4-methyl-1-(3-methylbenzyl)pyrrolidin-3-yl)-7-(tetrahydro-2H-pyran-4-yl)imidazo[5,1-f][1,2,4]triazin-4(3H)-one] | 442 | > 6.00 | 402 | – |
| CC1CN(c2nccc(C(F)(F)F)n2)CC1c1nn2c(C3CCOCC3)ncc2c(=O)[nH]1 (single isomer, unassigned; (+)) [(+)-2-((3,4-trans)-4-methyl-1-(4-(trifluoromethyl)pyrimidin-2-yl)pyrrolidin-3-yl)-7-(tetrahydro-2H-pyran-4-yl)imidazo[5,1-f][1,2,4]triazin-4(3H)-one] | – | – | – | PDE1A selectivity (versus PDE9A2) [1, 6]: 7; pIC50 [2, 7]: > 6.00; PDE1B selectivity (versus PDE9A2) [3, 8]: 1 |
| CC1CN(Cc2ncn(C)n2)CC1c1nn2c(C3CCOCC3)ncc2c(=O)[nH]1 (single isomer, unassigned; (+)) [(+)-2-((3,4-trans)-4-methyl-1-((1-methyl-1H-1,2,4-triazol-3-yl)methyl)pyrrolidin-3-yl)-7-(tetrahydro-2H-pyran-4-yl)imidazo[5,1-f][1,2,4]triazin-4(3H)-one] | – | – | – | PDE1A selectivity (versus PDE9A2) [1, 9]: 208; pIC50 [2]: > 6.00; PDE1B selectivity (versus PDE9A2) [3, 9]: 266 |
| CC1CN(Cc2nccn2C)CC1c1nn2c(C3CCOCC3)ncc2c(=O)[nH]1 (single isomer, unassigned; (+)) [(+)-2-((3,4-trans)-4-methyl-1-((1-methyl-1H-imidazol-2-yl)methyl)pyrrolidin-3-yl)-7-(tetrahydro-2H-pyran-4-yl)imidazo[5,1-f][1,2,4]triazin-4(3H)-one] | – | – | – | PDE1A selectivity (versus PDE9A2) [1, 9]: 197; pIC50 [2]: > 6.00; PDE1B selectivity (versus PDE9A2) [3, 9]: 107 |
| CC1CN(Cc2ccn(C)n2)CC1c1nn2c(C3CCOCC3)ncc2c(=O)[nH]1 (single isomer, unassigned; (+)) [(+)-2-((3,4-trans)-4-methyl-1-((1-methyl-1H-pyrazol-3-yl)methyl)pyrrolidin-3-yl)-7-(tetrahydro-2H-pyran-4-yl)imidazo[5,1-f][1,2,4]triazin-4(3H)-one] | – | – | – | PDE1A selectivity (versus PDE9A2) [1, 10]: 628; pIC50 [2, 11]: > 6.00; PDE1B selectivity (versus PDE9A2) [3, 12]: 721 |
| CC1CN(Cc2cnn(C)c2)CC1c1nn2c(C3CCOCC3)ncc2c(=O)[nH]1 (single isomer, unassigned; (+)) [(+)-2-((3,4-trans)-4-methyl-1-((1-methyl-1H-pyrazol-4-yl)methyl)pyrrolidin-3-yl)-7-(tetrahydro-2H-pyran-4-yl)imidazo[5,1-f][1,2,4]triazin-4(3H)-one] | – | – | – | PDE1A selectivity (versus PDE9A2) [1, 10]: 247; pIC50 [2, 11]: > 6.00; PDE1B selectivity (versus PDE9A2) [3, 12]: 434 |
| CC1CN(Cc2ccnn2C)CC1c1nn2c(C3CCOCC3)ncc2c(=O)[nH]1 (single isomer, unassigned; (+)) [(+)-2-((3,4-trans)-4-methyl-1-((1-methyl-1H-pyrazol-5-yl)methyl)pyrrolidin-3-yl)-7-(tetrahydro-2H-pyran-4-yl)imidazo[5,1-f][1,2,4]triazin-4(3H)-one] | – | – | – | PDE1A selectivity (versus PDE9A2) [1, 10]: 243; pIC50 [2, 11]: > 6.00; PDE1B selectivity (versus PDE9A2) [3, 12]: 370 |
| Cc1ncccc1CN1CC(C)C(c2nn3c(C4CCOCC4)ncc3c(=O)[nH]2)C1 (single isomer, unassigned; (+)) [(+)-2-((3,4-trans)-4-methyl-1-((2-methylpyridin-3-yl)methyl)pyrrolidin-3-yl)-7-(tetrahydro-2H-pyran-4-yl)imidazo[5,1-f][1,2,4]triazin-4(3H)-one] | – | – | – | PDE1A selectivity (versus PDE9A2) [1, 6]: 139; pIC50 [2, 7]: > 6.00; PDE1B selectivity (versus PDE9A2) [3, 8]: 201 |
| Cc1cc(CN2CC(C)C(c3nn4c(C5CCOCC5)ncc4c(=O)[nH]3)C2)ccn1 (single isomer, unassigned; (+)) [(+)-2-((3,4-trans)-4-methyl-1-((2-methylpyridin-4-yl)methyl)pyrrolidin-3-yl)-7-(tetrahydro-2H-pyran-4-yl)imidazo[5,1-f][1,2,4]triazin-4(3H)-one] | – | – | – | PDE1A selectivity (versus PDE9A2) [1, 6]: 232; pIC50 [2, 7]: > 6.00; PDE1B selectivity (versus PDE9A2) [3, 8]: 421 |
| Cc1ncc(CN2CC(C)C(c3nn4c(C5CCOCC5)ncc4c(=O)[nH]3)C2)cn1 (single isomer, unassigned; (+)) [(+)-2-((3,4-trans)-4-methyl-1-((2-methylpyrimidin-5-yl)methyl)pyrrolidin-3-yl)-7-(tetrahydro-2H-pyran-4-yl)imidazo[5,1-f][1,2,4]triazin-4(3H)-one] | 80 | > 6.00 | 60 | – |
| Cc1nc(CN2CC(C)C(c3nn4c(C5CCOCC5)ncc4c(=O)[nH]3)C2)cs1 (single isomer, unassigned; (+)) [(+)-2-((3,4-trans)-4-methyl-1-((2-methylthiazol-4-yl)methyl)pyrrolidin-3-yl)-7-(tetrahydro-2H-pyran-4-yl)imidazo[5,1-f][1,2,4]triazin-4(3H)-one] | – | – | – | PDE1A selectivity (versus PDE9A2) [1, 9]: 12; pIC50 [2]: > 6.00; PDE1B selectivity (versus PDE9A2) [3, 9]: 19 |
| CC1CN(Cc2ccc[nH]c2=O)CC1c1nn2c(C3CCOCC3)ncc2c(=O)[nH]1 (single isomer, unassigned; (+)) [(+)-2-((3,4-trans)-4-methyl-1-((2-oxo-1,2-dihydropyridin-3-yl)methyl)pyrrolidin-3-yl)-7-(tetrahydro-2H-pyran-4-yl)imidazo[5,1-f][1,2,4]triazin-4(3H)-one] | 424 | > 6.00 | 940 | – |
